Experimental data as given in PMC9088798, “An Approach to Derive Functional Peptide Inhibitors of Transcription Factor Activity” (JACS Au, 2022).

Experiments:
[1] = target: T1, cJun (Homo sapiens, UniProt P05412); assay: CD dimer exchange, competition for cJun; format: binding; conditions: A-FosW added to preformed HingeW/cJun heterodimer; total peptide 10 μM
T1 construct: The human cJun bZIP domain spans from Arg252 to Leu308; His-SUMO (N, cleaved yes); AS cap (two residues Ala-Ser) (N); GAP cap (three residues Gly-Ala-Pro) (C); made in house; host or cells: E. coli (pET21-His-SUMO plasmid)
Protocol: Figure 5 TBS winner peptide HingeW binds cJun preferentially over A-FosW. CD spectra (20 °C) show the binding of cJun to either (A) HingeW or (B) A-FosW. […] However, the effect is larger for HingeW, indicating a greater increase in peptide helicity. Similarly, the thermal denaturation of cJun bound to either (C) HingeW or (D) A-FosW is right-shifted from the average of the component peptide denaturation profiles. […]
Direct competition between HingeW and A-FosW for cJun binding was observed using CD dimer exchange experiments in which a solution containing one antagonist/cJun mixture was combined with the other antagonist to observe potential changes in α-helicity, as an indicator of a change in cJun dimerization partner. In this case, when HingeW was mixed with the preformed A-FosW/cJun heterodimer, a 17% increase in helicity was observed, as measured at 222 nm, relative to the average of the component signals (Figure 5E). […]
(§1) increased to the optimum 4 µM in subsequent passages. […] This allows the occurrence of library members to be monitored as winner sequences are selected for. […]

[2] = target: T1, cJun; assay: Isothermal titration calorimetry, binding to cJun; conditions: ITC, average of two independent experiments, one SD
Protocol: Isothermal Titration Calorimetry (ITC): Peptides were studied in an ITC buffer consisting of 10 mM potassium phosphate, 150 mM potassium fluoride and 5 mM TCEP at pH 7.4. Using a MicroCal VP-ITC instrument (Malvern), 10 µL injections of antagonist peptide (HingeW or A-FosW) at 10 µM were injected into the cell containing cJun at 1 µM.
MicroCal Origin software was used to record and analyse the heat change upon addition.
Control experiments involved the injection of the antagonist peptide sample into the cell containing ITC buffer alone to determine the heat of dilution which was subtracted. The resulting binding data were fit to a one site binding model to extract the enthalpy change of binding (ΔH) and the equilibrium binding constant (K D), from which the free energy change of binding (ΔG) and the entropy change of binding (ΔS) was calculated (41).
Thermodynamic parameters are presented as an average of two independent experiments with errors given as one standard deviation. […]

[3] = target: T2, cJun/TRE DNA interaction (Homo sapiens, UniProt P05412); assay: CD TRE DNA peak shift, antagonism of cJun/TRE DNA interaction; format: biochemical; conditions: cJun 20 μM, TRE DNA 5 μM, DNA peak ~281 nm, Hill equation; three independent experiments, one SD; pH 7.4
T2 construct: The human cJun bZIP domain spans from Arg252 to Leu308; His-SUMO (N, cleaved yes); AS cap (two residues Ala-Ser) (N); GAP cap (three residues Gly-Ala-Pro) (C); made in house; host or cells: E. coli (pET21-His-SUMO plasmid)
Protocol: The binding of cJun to TRE DNA can be observed by monitoring a DNA absorbance peak in the CD spectrum centered at ∼281 nm.[44] […] The addition of cJun (20 μM) to TRE DNA (5 μM) decreases this DNA peak by 55% as the cJun engages its target TRE site and alters the DNA structure (Figure 6A). Subsequent titration of HingeW into this bound cJun/TRE DNA mixture reverses the peak shift, with the peak increasing as DNA is released.
Figure 6 HingeW antagonizes cJun/TRE DNA interaction more effectively than A-FosW. (A) CD spectra showing a shift in the TRE DNA peak at ∼281 nm upon addition of cJun, which is reversed by the titration of HingeW into the sample, as HingeW sequesters the cJun in a nonfunctional heterodimer. […] EMSA showing the (C) unbound TRE DNA band shift upon addition of cJun and the subsequent restoration of the unbound DNA band intensity upon titration of either (D) HingeW or (E) A-FosW. (F). For both CD and EMSA, data was averaged from three independent experiments and the plotted error bars indicate one standard deviation. […]
µM) alongside ampicillin, kanamycin and chloramphenicol to maintain the required plasmids, and IPTG (1 mM) to induce protein expression. The library transformants were […]
as §1

T1 sequence (P05412 252-308): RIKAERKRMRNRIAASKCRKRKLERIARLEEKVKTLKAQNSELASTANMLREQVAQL
T2 sequence (P05412 252-308): as above

In the case of “LEQRAEELARENEELEKEAEELEQELDELQAEIEQLEERNYALRKEIEDLQKQLEKL [A-FosW, N-terminal AS and C-terminal GAP caps, 6xHis-tagged]”, the “dimer exchange on mixing with preformed heterodimer” value [1] is reported as “no dimer exchange had occurred”, the Kd ([2]; 10 µM antagonist peptide injected into 1 µM cJun, 10 mM potassium phosphate, 150 mM KF, 5 mM TCEP, pH 7.4, one site model) is reported as 0.0883 ± 0.0176 µM and the TΔS [2] is reported as −112.6 ± 4.1 kJ mol^–1. For the same sequence, the ΔH [2] was −152.6 ± 4.1 kJ mol^–1, the “N (binding stoichiometry)” value ([2]; single-site binding model) was 1.04 ± 0.08 and the IC50 [3] was 16 ± 0.4 µM.
